Test results from ChEMBL document CHEMBL1201862, “PubChem BioAssay data set” (2004).
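48-hour exposure; five concentrations; linearly interpolated endpoints. Here, GI50 denotes the concentration required for 50% inhibition of growth.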 The source made the active and inactive calls. No stated cut-off is given here; in the data, active = GI50 up to about 1.1 µM and inactive = higher.

Legend:
Test in all cases: NCI tumour cell line growth inhibition, 48 h
[1] = system: 786-0
[2] = system: LOX IMVI
[3] = system: SF-295
[4] = system: NCI-H23
[5] = system: HOP-62
[6] = system: SR
[7] = system: ACHN
[8] = system: M14
[9] = system: EKVX
[10] = system: K562
[11] = system: SNB-19
[12] = system: M19-MEL
[13] = system: HT-29
[14] = system: SK-MEL-5
[15] = system: OVCAR-5
[16] = system: HOP-18
[17] = system: KM12
[18] = system: SK-MEL-28
[19] = system: IGROV-1
[20] = system: SNB-78
[21] = system: Malme-3M
[22] = system: UACC-257
[23] = system: MOLT-4
[24] = system: DMS-273
[25] = system: DMS-114
[26] = system: OVCAR-3
[27] = system: KM-20L2
[28] = system: SN12C
[29] = system: HOP-92
[30] = system: SK-OV-3
[31] = system: CCRF-CEM
[32] = system: HL-60
[33] = system: NCI-H522
[34] = system: UACC-62
[35] = system: UO-31
[36] = system: A498
[37] = system: HCT-116
[38] = system: OVCAR-8
[39] = system: U-251
[40] = system: TK-10
[41] = system: A549
[42] = system: RPMI-8226
[43] = system: SF-268
[44] = system: LXFL 529
[45] = system: SNB-75
[46] = system: RXF 393
[47] = system: SK-MEL-2
[48] = system: NCI-H226
[49] = system: XF498
[50] = system: COLO 205
[51] = system: DLD-1
[52] = system: SW-620
[53] = system: SF-539
[54] = system: HCC 2998
[55] = system: RXF 631
[56] = system: OVCAR-4
[57] = system: NCI-H460
[58] = system: HCT-15
[59] = system: CAKI-1

With COc1cc(C(=C2SCCS2)c2nccc3cc(OC)c(OC)cc23)c([N+](=O)[O-])cc1OC the GI50 [1] was 59.3 µM (inactive), the GI50 [2] was 80.9 µM (inactive) and the GI50 [3] was 56 µM (inactive). The GI50 [4] was 40.8 µM (inactive), the GI50 [5] was > 100 µM (inactive) and the GI50 [6] was 21.7 µM (inactive). The GI50 [7] was 29.9 µM (inactive), the GI50 [8] was 89.9 µM (inactive) and the GI50 [9] was 54 µM (inactive). For the same compound, the GI50 [10] was 9.42 µM (inactive), the GI50 [11] was > 100 µM (inactive) and the GI50 [12] was 72.9 µM (inactive). For the same compound, the GI50 [13] was 58.9 µM (inactive), the GI50 [14] was 23.7 µM (inactive) and the GI50 [15] was > 100 µM (inactive). For the same compound, the GI50 [16] was > 100 µM (inactive), the GI50 [17] was 90.4 µM (inactive) and the GI50 [18] was > 100 µM (inactive). The GI50 [19] was > 100 µM (inactive), the GI50 [20] was 18 µM (inactive) and the GI50 [21] was 74.3 µM (inactive). The GI50 [22] was 34 µM (inactive), the GI50 [23] was 21.6 µM (inactive) and the GI50 [24] was 34.4 µM (inactive). The GI50 [25] was 41.6 µM (inactive), the GI50 [26] was 40.9 µM (inactive) and the GI50 [27] was 51.1 µM (inactive). For the same compound, the GI50 [28] was 48.9 µM (inactive), the GI50 [29] was 8.71 µM (inactive) and the GI50 [30] was 65.9 µM (inactive). The GI50 [31] was 34.1 µM (inactive), the GI50 [32] was 10.5 µM (inactive) and the GI50 [33] was 36.6 µM (inactive). For the same compound, the GI50 [34] was 74.3 µM (inactive), the GI50 [35] was 27.2 µM (inactive) and the GI50 [36] was > 100 µM (inactive). For the same compound, the GI50 [37] was 80.4 µM (inactive), the GI50 [38] was > 100 µM (inactive) and the GI50 [39] was 64.7 µM (inactive). The GI50 [40] was > 100 µM (inactive), the GI50 [41] was 39.4 µM (inactive) and the GI50 [42] was 20.8 µM (inactive). The GI50 [43] was 80.9 µM (inactive), the GI50 [44] was 18.5 µM (inactive) and the GI50 [45] was 45.1 µM (inactive). The GI50 [46] was > 100 µM (inactive), the GI50 [47] was > 100 µM (inactive) and the GI50 [48] was 80.4 µM (inactive). For the same compound, the GI50 [49] was 17.9 µM (inactive), the GI50 [50] was 35.3 µM (inactive) and the GI50 [51] was > 100 µM (inactive). The GI50 [52] was 62.1 µM (inactive), the GI50 [53] was > 100 µM (inactive) and the GI50 [54] was > 100 µM (inactive).
N#C/C(=C\c1cccc(O)c1)C(N)=O was tested, and the GI50 [1] was > 100 µM (inactive), the GI50 [2] was > 100 µM (inactive) and the GI50 [3] was > 100 µM (inactive). For the same compound, the GI50 [4] was > 100 µM (inactive), the GI50 [5] was > 100 µM (inactive) and the GI50 [7] was > 100 µM (inactive). For the same compound, the GI50 [8] was > 100 µM (inactive), the GI50 [9] was > 100 µM (inactive) and the GI50 [10] was > 100 µM (inactive). For the same compound, the GI50 [11] was > 100 µM (inactive), the GI50 [12] was > 100 µM (inactive) and the GI50 [13] was > 100 µM (inactive). For the same compound, the GI50 [14] was > 100 µM (inactive), the GI50 [15] was > 100 µM (inactive) and the GI50 [17] was > 100 µM (inactive). For the same compound, the GI50 [18] was > 100 µM (inactive), the GI50 [55] was > 100 µM (inactive) and the GI50 [19] was > 100 µM (inactive). The GI50 [20] was > 100 µM (inactive), the GI50 [21] was > 100 µM (inactive) and the GI50 [22] was > 100 µM (inactive). For the same compound, the GI50 [56] was > 100 µM (inactive), the GI50 [23] was > 100 µM (inactive) and the GI50 [57] was > 100 µM (inactive). For the same compound, the GI50 [24] was > 100 µM (inactive), the GI50 [25] was > 100 µM (inactive) and the GI50 [26] was > 100 µM (inactive). For the same compound, the GI50 [58] was over 100 µM, the GI50 [27] was > 100 µM (inactive) and the GI50 [28] was > 100 µM (inactive). The GI50 [29] was > 100 µM (inactive), the GI50 [30] was > 100 µM (inactive) and the GI50 [31] was > 100 µM (inactive). For the same compound, the GI50 [32] was 20.9 µM (inactive), the GI50 [33] was > 100 µM (inactive) and the GI50 [34] was > 100 µM (inactive). For the same compound, the GI50 [35] was > 100 µM (inactive), the GI50 [36] was > 100 µM (inactive) and the GI50 [37] was > 100 µM (inactive). The GI50 [38] was > 100 µM (inactive), the GI50 [39] was > 100 µM (inactive) and the GI50 [40] was > 100 µM (inactive). The GI50 [41] was > 100 µM (inactive), the GI50 [42] was > 100 µM (inactive) and the GI50 [43] was > 100 µM (inactive). The GI50 [44] was > 100 µM (inactive), the GI50 [45] was 22.3 µM (inactive) and the GI50 [46] was 61.4 µM (inactive). The GI50 [47] was > 100 µM (inactive), the GI50 [59] was > 100 µM (inactive) and the GI50 [48] was > 100 µM (inactive). For the same compound, the GI50 [49] was > 100 µM (inactive), the GI50 [50] was > 100 µM (inactive) and the GI50 [51] was > 100 µM (inactive). The GI50 [52] was > 100 µM (inactive), the GI50 [53] was > 100 µM (inactive) and the GI50 [54] was > 100 µM (inactive).
